Where two headings read alike, the source gives them in different places.
How the values were obtained:
isolated gastric glands = details: for reduction in secretagogue induced proton secretion (proton extrusion, acid production): Carbachol 200 μM, means from 5 rats; for inhibitory effect on secretagogue induced acid secretion, in words: rat gastric glands
Protocol: (§1) In this series of studies we used glands from rats that have been fasted for 18 hours with free access to water to reduce basal acid secretion to zero. Following isolation the glands were placed in a perfusion chamber that was maintained at 37° C. Prior to exposure to the Zn solution the glands were loaded with the Fluorescent reagent BCECF to monitor intracellular pH, this is based on technology we have used in the lab. In these studies we stimulated acid secretion by exposing the individual glands to 200 μM Carbachol a well characterized activator of acid secretion. In parallel to these studies (Control glands) we exposed glands from the same animal to a solution that contained ZnSO4.7H2O. […] In subsequent studies we then reduced the concentration of ZnSO4.7H2O by an order of magnitude ([…]) and repeated the study. For each dose used a minimum of 5 animals was used. […] We reduced to a concentration of 0.03 μM.

isolated human glands = details: for inhibitory effect on secretagogue induced acid secretion, in words: human gastric glands
Protocol: as §1
Note that doses of 300 μM and 3 μM were used. […] All data are the means from 5 separate human samples.

isolated stomachs = details: simultaneous with secretagogue, 15 minute exposure, fasted rats
Protocol: We took age and sex matched animals for these studies. The stomach was excised and perfused with 0.5 ml of nonbuffered saline solution in vitro with a solution of either 200 μM Carbachol or ZnSO4.7H2O+200 μM Carbachol following a 15 minute perfusion time we collected the effluent from the stomach and measure intragastric pH in this fluid following a protocol that we have used in the past.

isolated glands = test system: isolated glands
Protocol: In this series of studies Rats were given free access to water and normal rat chow for a period of 5 days. In one group 30 μM ZnSO4.7H2O was added to the drinking water so that the animals are getting a constant exposure of ZnSO4.7H2O. At the end of the 5 day period the animals were sacrificed and the stomach removed. We examined how these glands performed to addition of a secretagogue as previously defined in Protocol 1. In the second group we repeated the study giving 3 μM ZnSO4.7H2O for the 5 day period while allowing normal access to food and water.

[1] = listed as zinc sulfate heptahydate

O.O.O.O.O.O.O.O=S(=O)([O-])[O-].[Zn+2] [zinc sulfate heptahydrate]
inhibiting acid secretion in the stomach (isolated gastric glands; about 0.3 μM to about 300 μM, more often about 3 μM to about 30 μM): almost complete inhibition
reduction in secretagogue induced proton secretion (proton extrusion, acid production) (isolated gastric glands; dose of 0.03 μM): p<0.03 significant reduction
reduction in secretagogue induced proton secretion (proton extrusion, acid production) (isolated gastric glands; dose of 0.03 μM, listed as ZnSO4.7H2O): modest yet significant inhibition of acid secretion (p<0.03)
reduction in secretagogue induced proton secretion (proton extrusion, acid production) (isolated gastric glands; doses from 300 to 0.3 μM): significant p<0.0001 reduction
reduction in secretagogue induced proton secretion (proton extrusion, acid production) (isolated gastric glands; doses from 300 to 0.3 μM, listed as ZnSO4.7H2O): highly significant inhibition of proton extrusion (p<0.0001)
inhibitory effect on secretagogue induced acid secretion, in words (isolated gastric glands; listed as ZnSO4.7H2O): potent inhibitor
inhibitory effect on secretagogue induced acid secretion, in words (isolated gastric glands; [1]): abolishing the activity of the gastric H^+,K^+-ATPase
inhibition of proton extrusion (acid secretion) (isolated human glands; doses of 300 μM and 3 μM, Carbachol, means from 5 human samples): highly significant inhibition of proton extrusion (p<0.0001)
inhibitory effect on secretagogue induced acid secretion, in words (isolated human glands; listed as ZnSO4.7H2O): potent inhibitor
inhibitory effect on secretagogue induced acid secretion, in words (isolated human glands; [1]): abolishing the activity of the gastric H^+,K^+-ATPase
elevation in gastric pH (isolated stomachs; 3 μM, listed as ZnSO4Heptahydrate): ≥ 1 pH unit
elevation in gastric pH (isolated stomachs; 3 μM, listed as ZnSO4.7H2O): 1 pH unit
elevation in gastric pH (isolated stomachs; 30 μM, listed as ZnSO4Heptahydrate): ≥ 1 pH unit
elevation in gastric pH (isolated stomachs; 30 μM, listed as ZnSO4.7H2O): 1 pH unit
basal acid secretion in the gland (isolated glands; 3 μM in drinking water for 7 days, versus blank water): slightly higher than blank water
Carbachol (secretagogue) induced acid secretion (isolated glands; 3 μM in drinking water for 7 days, versus matched controls): marked suppression
basal acid secretion in the gland (isolated glands; 30 μM, 1 week ad lib access): no basal acid secretion
secretagogue (carbachol) induced acid secretion in the gland (isolated glands; 30 μM, 1 week ad lib access): no effect

Reference: patent publication US20170209489A1, “FAST ACTING INHIBITOR OF GASTRIC ACID SECRETION WITH ENHANCED ACTIVITY” (YALE UNIVERSITY, priority 2014, published 2017)
